The target of the test is T1, Calpain I (Homo sapiens, UniProt P07384).
T1 construct: Calpain I was purified from human red blood cells; from tissue; host or cells: human red blood cells (packed, outdated)
T1 sequence (P07384 1-714): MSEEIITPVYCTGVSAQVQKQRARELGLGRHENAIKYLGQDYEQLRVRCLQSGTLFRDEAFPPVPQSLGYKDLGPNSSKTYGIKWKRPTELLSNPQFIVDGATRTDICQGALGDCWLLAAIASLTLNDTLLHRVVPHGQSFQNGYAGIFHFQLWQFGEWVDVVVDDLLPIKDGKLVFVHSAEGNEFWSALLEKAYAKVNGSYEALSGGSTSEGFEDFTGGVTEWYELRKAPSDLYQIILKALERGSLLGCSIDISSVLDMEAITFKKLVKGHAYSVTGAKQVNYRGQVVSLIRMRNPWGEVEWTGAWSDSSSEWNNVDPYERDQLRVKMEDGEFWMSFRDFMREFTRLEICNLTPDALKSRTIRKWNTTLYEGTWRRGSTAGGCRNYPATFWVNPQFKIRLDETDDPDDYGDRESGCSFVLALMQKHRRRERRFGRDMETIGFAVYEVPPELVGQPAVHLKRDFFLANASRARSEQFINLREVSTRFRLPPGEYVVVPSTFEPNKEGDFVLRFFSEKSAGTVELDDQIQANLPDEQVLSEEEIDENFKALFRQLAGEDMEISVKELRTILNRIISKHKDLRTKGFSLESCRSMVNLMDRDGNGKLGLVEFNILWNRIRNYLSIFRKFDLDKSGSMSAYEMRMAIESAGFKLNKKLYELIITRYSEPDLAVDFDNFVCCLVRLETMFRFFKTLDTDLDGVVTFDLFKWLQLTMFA
T1 sequence (P04632 1-268 partner): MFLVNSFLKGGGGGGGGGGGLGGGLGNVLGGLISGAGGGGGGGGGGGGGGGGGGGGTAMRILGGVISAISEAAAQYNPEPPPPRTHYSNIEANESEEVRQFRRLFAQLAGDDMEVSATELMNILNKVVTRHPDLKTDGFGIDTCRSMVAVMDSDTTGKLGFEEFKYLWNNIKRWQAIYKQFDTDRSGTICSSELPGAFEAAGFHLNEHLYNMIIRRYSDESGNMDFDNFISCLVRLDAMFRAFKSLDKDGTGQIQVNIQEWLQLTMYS
The test is described as follows: Inhibition and rate of inactivation of calpain I (Succ-Leu-Tyr-MNA hydrolysis). Type of test: biochemical. The settings on record: mean of three or more independent analyses, corrected for substrate, k2 = kapp(1+[S]/Km), read-out: k2 (second order rate constant of inactivation), A = Calpain I.
Turning to `CC(C)C[C@H](NC(=O)OCc1ccccc1)C(=O)N[C@@H](Cc1ccccc1)C(=O)COn1nnc2ccccc21` [Example 3, 1-[N-[N-Benzyloxycarbonyl-L-leucyl]-3S-4-phenyl-3-amino-2-oxobutyloxy]benzotriazole], the kinact/KI came to 150000 M⁻¹ s⁻¹.
With `CC[C@H](NC(=O)[C@H](CC(C)C)NC(=O)OCc1ccccc1)C(=O)COn1nnc2ccccc21` [Example 5, 1-[N-[N-Benzyloxycarbonyl-L-leucyl]-3S-3-amino-2-oxopentyloxy] benzotriazole] the figure was 63000 M⁻¹ s⁻¹; with `CC(C)C[C@H](NC(=O)OCc1ccccc1)C(=O)N[C@@H](Cc1ccccc1)C(=O)COn1nnc2cccnc21` [Example 6, 3-[N-[N-Benzyloxycarbonyl-L-leucyl]-3S-4-phenyl-3-amino-2-oxobutyloxy]-3H-triazolo[4,5-b]pyridine], 184000 M⁻¹ s⁻¹; with `CC(C)C[C@H](NC(=O)OCc1ccccc1)C(=O)N[C@@H](Cc1ccccc1)C(=O)COn1nnc2ccccc2c1=O` [Example 28, 1-[N-[N-Benzyloxycarbonyl-L-leucyl]-3S-4-phenyl-3-amino-2-oxobutyloxy]-3-benzotriazin-4-one], 122000 M⁻¹ s⁻¹.
